In data set [1] the test system is target gene mRNAs of miR-183 in HEK293 cell extract. The data set can be described thus: Pull down of target gene mRNAs of miR-183 with biotinylated miRNA from cell extract, RT-PCR assay. It counts as binding, human. The settings on record: for candidate genes whose mRNA was pulled down / RT-PCR bands: 14 kinds of target candidate genes of miR-183, HEK293 cell extract, streptavidin agarose beads; for target candidate genes of miR-183 (10 kinds) in pull-down complex: VIL2, PPP2CA, RREB1, BCL2L11, PDCD4, LATS2, RSU1, ING3, DNMT3A, BRMS1L, wash 400 mM KCl.

The subject of data set [2] is target candidate genes of let-7b (mRNA in cell extract). Nature of the data set: Pull down of target gene mRNAs of let-7b with biotinylated miRNA, RT-PCR assay. The data set is classed as binding, human. The following applies: wash 400 mM KCl; for E2F6 and SOCS4 in pulled down mRNA: Example 8; for E2F2, TUSC2 and SRSF8 in pulled down mRNA: Example 9. The text has this:
In this example, in the detection method for target genes of miRNA of Example 1, target genes were detected through the use of let-7b as biotinylated miRNA. In accordance with the biotinylated miRNA of 1) of Example 1, biotinylated let-7b in which the sense strand had its 5′ end and 3′ end modified by phosphorylation and biotin, respectively, and the guide strand had only its 5′ end modified by phosphorylation and biotinylated miR-183 as a negative control were synthesized (FASMAC Co., Ltd.). A pull-down complex was obtained by the same technique as in Example 1 through the use of streptavidin beads (Streptavidin Mutein Matrix: Roche), and washed five times with a wash solution containing 400 mM KCl in the same manner as in Example 5. After that, RNA purification and cDNA synthesis were performed from the complex binding to the beads. The resulting cDNA was subjected to an RT-PCR assay with primers specific for the E2F6 and SOCS4-2 genes as target candidate genes of let-7b.
In this example, in the detection method for target genes of miRNA of Example 1, target genes were detected through the use of let-7b as biotinylated miRNA. In this example, the detection was performed by the same technique as in Example 8 except that biotinylated miR-29a was used as a negative control in place of biotinylated miR-183. Also in the case of the biotinylated miR-29a, one in which the sense strand had its 5′ end and 3′ end modified by phosphorylation and biotin, respectively, and the antisense strand had only its 5′ end modified by phosphorylation was produced (FASMAC Co., Ltd.). An RT-PCR assay was performed with primers specific for the PRDM2, E2F2, TUSC2, and SRSF8 genes as target candidate genes let-7b.

Data set [3] concerns target candidate genes of miR-19a (mRNA in cell extract). The data set can be described thus: Pull down of target gene mRNAs of miR-19a with biotinylated miRNA, RT-PCR assay. The data set is classed as binding, human. The text has this:
In this example, in the detection method for target genes of miRNA of Example 1, target genes were detected through the use of miR-19a as biotinylated miRNA. In accordance with the biotinylated miRNA of 1-1) of Example 1, biotinylated miR-19a in which the sense strand had its 5′ end and 3′ end modified by phosphorylation and biotin, respectively, and the antisense strand had only its 5′ end modified by phosphorylation was were synthesized (FASMAC Co., Ltd.). The synthesized biotinylated miR-19a (400 pmole) and biotin (B4501: Sigma, […]) as a negative control were subjected to the treatments of 1-2) and 1-3) of Example 1. A pull-down complex was obtained from the resulting complex by the same technique as in 1-4) through the use of streptavidin beads (Streptavidin Mutein Matrix: Roche), and washed five times with a wash solution containing 400 mM KCl in the same manner as in Example 5. After that, the precipitate was treated with a 5 mM biotin solution (containing 5 mM biotin and an RNase inhibitor in the wash solution containing 400 mM KCl) at 42° C. for 5 minutes, and centrifuged in the same manner, and the pull-down complex (biotinylated miR-19a) was liberated from the streptavidin beads. […]
In this example, target genes were detected through the use of miR-19a as biotinylated miRNA in the detection method for target genes of miRNA of Example 1. […]

The target in data set [4] is T1, AGO2 protein (Homo sapiens, UniProt Q9UKV8).
T1 construct: endogenous in cells; host or cells: HEK293 cell extract
T1 sequence (Q9UKV8 whole entry): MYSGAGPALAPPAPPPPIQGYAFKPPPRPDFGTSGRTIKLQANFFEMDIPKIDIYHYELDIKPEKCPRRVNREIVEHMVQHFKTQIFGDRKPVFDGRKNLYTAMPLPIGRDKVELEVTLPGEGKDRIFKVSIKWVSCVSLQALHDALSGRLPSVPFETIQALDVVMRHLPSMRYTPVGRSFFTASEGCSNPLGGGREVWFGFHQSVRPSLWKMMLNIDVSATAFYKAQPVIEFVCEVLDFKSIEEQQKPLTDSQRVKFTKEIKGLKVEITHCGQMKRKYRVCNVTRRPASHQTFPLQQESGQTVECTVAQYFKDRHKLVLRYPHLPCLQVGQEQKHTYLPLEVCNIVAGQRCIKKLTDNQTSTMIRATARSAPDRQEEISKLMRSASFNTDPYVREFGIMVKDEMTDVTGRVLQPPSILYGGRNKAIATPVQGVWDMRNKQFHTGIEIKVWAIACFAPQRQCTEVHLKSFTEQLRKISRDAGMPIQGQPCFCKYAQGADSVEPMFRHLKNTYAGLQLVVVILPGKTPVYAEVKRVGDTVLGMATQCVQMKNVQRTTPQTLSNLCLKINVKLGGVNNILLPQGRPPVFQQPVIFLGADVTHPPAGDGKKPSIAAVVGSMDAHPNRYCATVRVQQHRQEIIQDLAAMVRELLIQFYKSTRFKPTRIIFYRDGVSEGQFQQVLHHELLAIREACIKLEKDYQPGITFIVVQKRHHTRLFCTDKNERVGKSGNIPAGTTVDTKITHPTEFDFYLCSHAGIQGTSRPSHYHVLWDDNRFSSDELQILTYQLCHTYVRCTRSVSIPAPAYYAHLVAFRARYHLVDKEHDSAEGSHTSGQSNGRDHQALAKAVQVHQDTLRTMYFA
The data set can be described thus: AGO2 protein in pull-down complex, Western blot. The data set is classed as binding. The following applies: HEK293 cell extract; streptavidin agarose beads 1 hour. As to the method: Biotinylated miR-183 was produced by the same technique as that for the biotinylated miRNA of 1-1) of Example 1, and a cell extract of HEK293 cells was produced by the same technique as that for the cell extract of 1-2) of Example 1. Five tubes in each of which biotinylated double-stranded miR-183 ([…]) was added to 500 μl of the cell extract were produced, and were each subjected to a reaction at 4° C. for 30 minutes, and then at 30° C. for 60 minutes to provide a solution containing a biotinylated miRNA-target gene mRNA complex. To the solution containing the complex were added streptavidin agarose beads (Streptavidin Mutein Matrix, No. 03 708 152 001: Roche), and each tube was treated at 4° C. for 0 minutes, 2 minutes, 12 minutes, 24 minutes, or 1 hour. […]
The presence or absence of the AGO2 protein in the pull-down complex of Example 2 was confirmed. […] By the same technique as in Experimental Example 1-2, the sample was electrophoresed with 8% SDS-polyacrylamide gel, proteins were then blotted onto a PVDF membrane and subjected to a reaction through the use of an anti-AGO2 antibody (Anti Human AGO2 monoclonal antibody; Wako Pure Chemical Industries, Ltd., No. 016-20861), an anti-mouse antibody, and a Vecstatin ABC-AP kit (Vector Laboratories), and a fluorescence image was acquired with an image analyzer (LAS-1000; FUJIFILM). […]
A general note: In western blotting, separated proteins are transferred to a membrane and probed.

{Biotin} = biotin label; {P} = phosphate

For “biotinylated let-7b: Sense SEQ ID NO: 3, 5′-phosphorylated, 3′-biotinylated; antisense SEQ ID NO: 4”, in data set [1], the “candidate genes whose mRNA was pulled down / RT-PCR bands” value is “no band for any of the genes was detected”. In data set [2], the “E2F6 and SOCS4 in pulled down mRNA” value is recorded as “contained”; the “E2F2, TUSC2 and SRSF8 in pulled down mRNA” value was “contained”.
In the case of “biotinylated miR-19a: Sense SEQ ID NO: 7, 5′-phosphorylated, 3′-biotinylated; antisense SEQ ID NO: 8 (sense UGUGCAAAUCUAUGCAAAACUGA; antisense AGUUUUGCAUAGAUUUGCAUAAG; sense: RNA, 5' {P}, 3' {Biotin}, backbone not given here; antisense: RNA, 5' {P}, backbone not given here)”, the “target candidate genes (9 genes) of miR-19a in pulled down mRNA” value in data set [3] (JAZF1, TNF, SMAD4, HIP1, HIC1, LRP12, TNFRSF12A, TUSC2, SIVA1, Example 11) is “contained”. Moreover, the “target candidate genes (7 kinds) of miR-19a in 5 mM biotin extract or on remaining beads” value in data set [3] (SOX4, INHBB, TP531NP1, PTP4A1, TNFAIP3, HIC1, CNKSR2, Example 10) is listed as “present”.
Turning to “biotinylated miR-29a: Sense SEQ ID NO: 5, 5′-phosphorylated, 3′-biotinylated; antisense SEQ ID NO: 6; negative control (sense UAGCACCAUCUGAAAUCGGUUA; antisense ACCGAUUUCAGAUGGUGCCAAG; sense: RNA, 5' {P}, 3' {Biotin}, backbone not given here; antisense: RNA, 5' {P}, backbone not given here)”, the “E2F2, TUSC2 and SRSF8 in pulled down mRNA” value in data set [2] is on record as “not contained”.
For the substance “biotinylated miR-183: Sense SEQ ID NO: 1, 5′-phosphorylated, 3′-biotinylated; antisense SEQ ID NO: 2 with a 1-base mismatch (sense UAUGGCACUGGUAGAAUUCACU; antisense UGAAUUCUACCAGUGCCACAAG; sense: RNA, 5' {P}, 3' {Biotin}, backbone not given here; antisense: RNA, 5' {P}, backbone not given here)”, in data set [1], the “candidate genes whose mRNA was pulled down / RT-PCR bands” value was 7 and the “target candidate genes of miR-183 (10 kinds) in pull-down complex” value was “contained”. Also, the “E2F6 and SOCS4 in pulled down mRNA” value in data set [2] was “not contained”. The “AGO2 protein (about 95 kDa) in pull-down complex” value in data set [4] is listed as “detected”.
On to “natural type miRNA: Original mature miRNA type: sense SEQ ID NO: 1, antisense SEQ ID NO: 9 (sense UAUGGCACUGGUAGAAUUCACU; antisense GUGAAUUACCGAAGGGCCAUAA; sense: RNA, 5' {P}, 3' {Biotin}, backbone not given here; antisense: RNA, 5' {P}, backbone not given here)”, for which the “target candidate genes of miR-183 (10 kinds) in pull-down complex” value in data set [1] was “contained”.

These data come from patent publication US9212387B2, “Method for detection of genes targeted by microRNA” (National University Corporation Okayama University, priority 2010, dated 2015).
